The nature of data set [1]: MTT cell viability (cytotoxicity) assay. The class given is cell-based. As to conditions: human, HCT116 cells. The protocol:
(§1) All the derivatives were evaluated for their ability to induce ARE in HepG2-ARE-C8 cell (HepG2 cells stably transfected with a luciferase reporter) by ARE luciferase reporter assay, and they were compared to the lead compound 2. At the same time, cytotoxicity studies were performed by the MTT assay against the HCT116 cells. The results of cytotoxic activity in vitro were expressed as the IC50 [18]. Because those compounds were designed for chemoprevention, they should not be cytotoxic.
Cell viabilities were determined by using 3-[4,5-dimethylthiazol-2-yl]-2,5-diphenyltetrazolium bromide (MTT) assay. MTT was dissolved in (phosphate buffered solution) PBS to a concentration of 5 mg/mL. HCT116 cells (8 × 10^3 cells/well) were plated in 96-well plates and incubated overnight. Different concentrations of test compounds were added to each cell for 24 h at 37 °C, and the 20 μL MTT solution was added and incubated for an additional 4 h. Then, 100 μL of DMSO was added to dissolve formazan precipitate after the solution was removed. The OD value was determined at 570 nm by Elx800 absorbance microplate reader (BioTek, Winooski, VT, USA). IC50 value (concentration at which cell survival equals 50% of control) = […].

In data set [2] the test system is antioxidant response element (ARE). Briefly: ARE luciferase reporter assay in HepG2-ARE-C8 cells. Type of data set: cell-based. The conditions noted are these: HepG2-ARE-C8, 12 h of treatment, mean ± SD n = 3, read-out: ARE Inductivity in Luciferase Reporter Assay (induction fold). The protocol:
as §1
HepG2-ARE-C8 cells (4 × 10^4 cells/well) were incubated overnight in 96-well plates, and then treated with different concentrations of test compounds. tBHQ was used as a positive control, DMSO was used as a negative control, and the luciferase cell culture lysis reagent was used as a blank. The medium was removed after 12 h treatment. Then, the cells were harvested in the luciferase cell culture lysis reagent together with 100 μL of cold PBS. Then, centrifuging the solution and 20 μL of the supernatant was used for determining the luciferase activity. The luciferase activity was measured by a Luminoskan Ascent (Thermo Scientific, Waltham, MA, USA). The data were obtained in triplicate and expressed as fold induction over the control. Induction fold = (RLUtest − RLUblank)/(RLUDMSOcontrol − RLUblank). RLU = relative light unit l.

Structures are written as SMILES.

Usually IC50 stands for the point on the concentration scale where inhibition reaches its midpoint. High values mean lower potency, low ones higher potency. Usually melting point stands for the temperature of the solid-liquid transition. The molecule `O=C(C=C1NCC2CCCCN2C1=O)c1cccc([N+](=O)[O-])c1` (stereo not drawn) [Compound 3d, 3-(2-(3-nitrophenyl)-2-oxoethylidene)octahydro-4H-pyrido[1,2-a]pyrazin-4-one] came in with a melting point of 174 to 176 °C. In data set [1], half-maximal inhibition (IC50 at 24 h) required 181 µM. For the same molecule, in data set [2], the fold induction at 0.1 µM is 1.96 ± 0.88, the fold induction at 1 µM was found to be 3.85 ± 1, the fold induction at 5 µM stood at 12 ± 2.55 and the fold induction at 10 µM was found to be 19.5 ± 3.09. Also, in data set [2], the fold induction at 50 µM was 47.6 ± 3.54 and the fold induction at 100 µM amounted to 8.66 ± 3.27.
In turn, `COc1cccc(C(=O)C=C2NCC3CCCCN3C2=O)c1` (stereo not drawn) [Compound 3e, 3-(2-(3-methoxyphenyl)-2-oxoethylidene)octahydro-4H-pyrido[1,2-a]pyrazin-4-one] yielded a melting point of 133 to 135 °C. The half-inhibitory concentration (IC50) at 24 h in data set [1] was > 300 µM. In data set [2], the fold induction at 0.1 µM stood at 1.4 ± 1.21, the fold induction at 1 µM was found to be 1.82 ± 1.15, the fold induction at 5 µM is 6.59 ± 0.77 and the fold induction at 10 µM was found to be 9.16 ± 0.42. In data set [2], the fold induction at 50 µM came to 9.36 ± 3.76 and the fold induction at 100 µM was 1.44 ± 1.75.
For the molecule `O=C(C=C1NCC2CCCCN2C1=O)c1ccc(-c2ccccc2)cc1` (stereo not drawn) [Compound 3f, 3-(2-([1,1′-biphenyl]-4-yl)-2-oxoethylidene)octahydro-4H-pyrido[1,2-a]pyrazin-4-one], the melting point fell in the range of 197 to 199 °C. In addition, half-maximal inhibition in data set [1] (IC50 at 24 h) required 184 µM. For the same molecule, in data set [2], the fold induction at 0.1 µM was 2.96 ± 0.66, the fold induction at 1 µM worked out at 2.21 ± 0.52, the fold induction at 5 µM stood at 3.6 ± 0.42 and the fold induction at 10 µM is 1.76 ± 0.1. Besides, in data set [2], the fold induction at 50 µM was found to be 2.47 ± 0.03 and the fold induction at 100 µM was 2.69 ± 2.75.
The molecule `O=C(C=C1NCC2CCCCN2C1=O)c1cccs1` (stereo not drawn) [Compound 3h, 3-(2-oxo-2-(thiophen-2-yl)ethylidene)octahydro-4H-pyrido[1,2-a]pyrazin-4-one] had a melting point of 182 to 184 °C. Also, in data set [1], the half-maximal inhibitory concentration (IC50) at 24 h is > 300 µM. Further, in data set [2], the fold induction at 0.1 µM came out at 2.06 ± 0.22, the fold induction at 1 µM amounted to 2.12 ± 0.31, the fold induction at 5 µM was 8.3 ± 2.55 and the fold induction at 10 µM is 10.5 ± 3.82. In data set [2], the fold induction at 50 µM was 28.9 ± 0.46 and the fold induction at 100 µM turned out to be 1.63 ± 0.25.
In turn, `O=C(C=C1NCC2CCCCN2C1=O)c1nccs1` (stereo not drawn) [Compound 3i, 3-(2-oxo-2-(thiazol-2-yl)ethylidene)octahydro-4H-pyrido[1,2-a]pyrazin-4-one] had a melting point of 151 to 153 °C. The half-maximal inhibitory concentration (IC50) at 24 h in data set [1] was > 300 µM. In addition, in data set [2], the fold induction at 0.1 µM is 1.52 ± 0.87, the fold induction at 1 µM came out at 4.02 ± 3.05, the fold induction at 5 µM came out at 6.41 ± 1.48 and the fold induction at 10 µM worked out at 9.28 ± 0.55. In addition, in data set [2], the fold induction at 50 µM was determined as 13.5 ± 0.8 and the fold induction at 100 µM was determined as 16.7 ± 1.39.
In turn, `O=C(C=C1NCC2CCCCN2C1=O)c1cccc2ccccc12` (stereo not drawn) [Compound 3j, 3-(2-(naphthalen-1-yl)-2-oxoethylidene)octahydro-4H-pyrido[1,2-a]pyrazin-4-one] returned a melting point of 151 to 153 °C. For the same molecule, the IC50 at 24 h in data set [1] is 264 µM. In data set [2], the fold induction at 0.1 µM is 1.7 ± 0.19, the fold induction at 1 µM is 2.34 ± 0.53, the fold induction at 5 µM was found to be 2.54 ± 0.99 and the fold induction at 10 µM came out at 3.52 ± 0.57. For the same molecule, in data set [2], the fold induction at 50 µM came out at 3.85 ± 0.34 and the fold induction at 100 µM was found to be 1.96 ± 0.71.

Values taken from paper PMC6151508, “Development of Novel Nrf2/ARE Inducers Bearing Pyrazino[2,1-a]isoquinolin Scaffold with Potent In Vitro Efficacy and Enhanced Physicochemical Properties” (Molecules : A Journal of Synthetic Chemistry and Natural …, 2017).
